Results published in ChEMBL document CHEMBL1141345, “Bacillamides from a hypersaline microbial mat bacterium” (J Nat Prod, 2007).
Active and inactive are the calls of the source.

What was measured:
Bacillus endophyticus = assay: Antimicrobial activity against Bacillus endophyticus SP31 isolate at <500 uM by broth dilution assay; type: functional; conditions: Priestia endophytica
Staphylococcus aureus [1] = assay: Growth inhibition of methicillin-resistant Staphylococcus aureus; type: functional, organism-based
Staphylococcus aureus [2] = assay: Reduction of alpha-toxin secretion in biofilm-forming methicillin-resistant Staphylococcus aureus at <150 uM; type: functional, organism-based

Measured: Activity

C[C@@H](O)c1nc(C(=O)NCCc2c[nH]c3ccccc23)cs1
inactive: all assays above

CC(=O)N[C@H](C)c1nc(C(=O)NCCc2c[nH]c3ccccc23)cs1
inactive: all assays above

CC(=O)c1nc(C(=O)NCCc2c[nH]c3ccccc23)cs1
inactive: all assays above
